Article PMC5991393, “Pharmacokinetic properties of a novel inosine analog, 4′-cyano-2′-deoxyinosine, after oral administration in rats” (PLoS ONE, 2018)
“Also recorded” adds a separate entry of the source. One block for each compound: values may come before it.

Experiments:
HBVL180M/S202G/M204V = system: HBVL180M/S202G/M204V; design: method as in PMID 26122273; details: entecavir-resistant variant; cited from earlier work
wild-type HBV = system: wild-type HBV; design: method as in PMID 26122273; details: cited from earlier work
HBVA181T/N236T = system: HBVA181T/N236T; design: method as in PMID 26122273; details: adefovir dipivoxil-resistant variant; cited from earlier work
[1] = Pharmacokinetic study of oral co-administration of SK14-061a and ETV in rats; format: in vivo
Description: At stipulated times after the administration (15 min, 45 min, 90 min, 3, 6 and 9 hr), venous blood samples were collected by means of a heparinized syringe (0.25ml). The blood samples were centrifuged (3,000 rpm, 10 min) to obtain plasma. […] All data are expressed as the mean ± S.D. Statistical analyses for multiple comparisons were determined by an analysis of variance (two-way ANOVA) using the Bonferroni correction for multiple comparisons. A probability value of p < 0.05 was considered to be significant. A non-compartment model was used for the pharmacokinetic analysis. Parameters were calculated using the program of a moment analysis developed by Tabata et al. Half-life (t1/2) were calculated from the elimination phase. Area under the concentration-time curve (AUC) were calculated using the following equations: AUC=∫0∞Cdt

[2] = Clinical chemistry (liver and kidney toxicity) after oral SK14-061a; format: in vivo, Sprague-Dawley rats; details: p.o., 1 mg/kg, 9 hr after administration
Description: Sprague-Dawley rats (male, 230–270 g) were purchased from the Kyudo Co., Ltd. (Saga, Japan). All animals were maintained under conventional housing conditions, with food and water ad libitum in a temperature-controlled room with a 12 hr dark/light cycle. Maintenance of the animals and the experimental procedures performed on them were carried out in accordance with NIH guidelines. All animal experiments were reviewed and approved by the Animal Care and Use committee of Sojo University (Permit #: 2015-P-020). Eight rats were divided into two group: non-treatment group as a control (n = 4) and SK14-061a-treated group (p.o., 1 mg/kg, n = 4). […] The blood samples were centrifuged (3,000 g, 5 min) to obtain plasma for analysis of aspartate aminotransferase (AST), alanine aminotransferase (ALT), urea nitrogen (BUN) and creatinine. All plasma samples were stored at -80 °C prior to analysis by a commercial clinical testing laboratory (Oriental Yeast Co., Tokyo, Japan).

[3] = Pharmacokinetic study of SK14-061a after oral and intravenous administration in rats; format: in vivo; details: 1 mg/kg
Description: (§1) Rats were fasted for 12 h but with free access to water before dosing. Rats were orally (p.o.) administered a SK14-061a solution at a dose of 1 mg/kg. At stipulated times after the administration (15 min, 45 min, 90 min, 3, 4.5, 6 and 9 hr), venous blood samples were collected from tail vein using a heparinized syringe (0.25ml). The blood samples were centrifuged (3,000 rpm, 10 min) to obtain plasma. Urine samples were collected in a metabolic cage for 9 hr after the administration of the SK14-061a solution. After obtaining the last blood sample, all rats were sacrificed and kidneys and liver collected. To determine the time-dependent tissue distribution of SK14-061a, rats were sacrificed and organs (kidneys and liver) were collected at 1 and 3 hr after the oral administration of SK14-061a at a dose of 1 mg/kg. To calculate bioavailability, plasma concentrations of SK14-061a after intravenous administration (1 mg/kg) were also obtained at 3 min, 15 min, 30 min, 1, 3, 6 and 9 hr. Before the LC-MS analysis, plasma samples that were collected for pharmacokinetic studies were treated in the same manner as described in the "Validation assays" section. A portion of the liver and kidney tissues (about 500 mg) were homogenized in water (1 mL). The homogenized samples were subsequently ultracentrifuged at 100,000 g for 1 hr, and the supernatant collected. Urine samples were centrifuged (3,000 rpm, 10 min) and the supernatants were used in the analyses. All samples derived from organs and urine were processed using a Waters Oasis MCX 96 well plate in the same manner as was used for the plasma samples before the LC-MS analysis. All data are expressed as the mean ± S.D. Statistical analyses for multiple comparisons were determined by an analysis of variance (two-way ANOVA) using the Bonferroni correction for multiple comparisons. A probability value of p < 0.05 was considered to be significant. A non-compartment model was used for the pharmacokinetic analysis. Parameters were calculated using the program of a moment analysis developed by Tabata et al. Half-life (t1/2) were calculated from the elimination phase. Area under the concentration-time curve (AUC) were calculated using the following equations: AUC=∫0∞Cdt

HIV-1MDR = system: HIV-1MDR; design: method as in PMID 15200030; details: clone with Ala62Val, Val75Leu, Phe77Leu, Phe116Tyr, Gln115Met; cited from earlier work
[4] = system: human α1-acid glycoprotein (AGP); assay: Protein binding by ultrafiltration, AGP; format: in vitro ADME; details: 45 μM AGP, 500 ng/mL
Description: (§2) Protein binding assays were performed following a previous reported procedure, with minor modifications. In short, pooled human plasma, 600 μM HSA and 45 μM AGP were spiked with an aqueous solution of SK14-061a to produce a final SK14-061a concentration of 500 ng/mL, respectively. The unbound drug fraction was determined by ultrafiltration. Ultrafiltration was carried out using an Amicon® Ultra-0.5 mL centrifugal filter unit with an Ultracel®-30 membrane (Merck Millipore Company, MA). Samples of 500 μL were centrifuged at 14,000 g for 10 min. The SK14-061a concentration were determined by LC-MS without the SPE method.

[5] = Urinary excretion of unchanged SK14-061a after oral administration; format: in vivo, rats
Description: as §1, with “Urine samples were collected in a metabolic cage for 9 hr after the administration of the SK14-061a solution.” left out, “analysis.” for “analysis. All data are expressed as the mean ± S.D. Statistical analyses for multiple comparisons were determined by an analysis of variance (two-way ANOVA) using the Bonferroni correction for multiple comparisons. A probability value of p < 0.05 was considered to be significant. A non-compartment model was used for the pharmacokinetic analysis. Parameters were calculated using the program of a moment analysis developed by Tabata et al. Half-life (t1/2) were calculated from the elimination phase. Area under the concentration-time curve (AUC) were calculated using the following equations: AUC=∫0∞Cdt”

[6] = Tissue distribution to liver and kidney after oral administration; format: in vivo; details: rats, p.o., 1 mg/kg
Description: as §1, with “analysis.” for “analysis. All data are expressed as the mean ± S.D. Statistical analyses for multiple comparisons were determined by an analysis of variance (two-way ANOVA) using the Bonferroni correction for multiple comparisons. A probability value of p < 0.05 was considered to be significant. A non-compartment model was used for the pharmacokinetic analysis. Parameters were calculated using the program of a moment analysis developed by Tabata et al. Half-life (t1/2) were calculated from the elimination phase. Area under the concentration-time curve (AUC) were calculated using the following equations: AUC=∫0∞Cdt”

[7] = Protein binding by ultrafiltration, pooled human plasma; format: in vitro ADME; details: read-out: protein binding rate in human pooled plasma (converted)
Description: as §2

[8] = target: T1, Human serum albumin (HSA) (Homo sapiens, UniProt P02768); assay: Protein binding by ultrafiltration, HSA; format: in vitro ADME; details: 600 μM HSA, 500 ng/mL
T1 construct: purchased Sigma-Aldrich (Tokyo, Japan)
Description: as §2

[9] = Metabolism assay in vitro with rat liver microsomes; format: in vitro ADME; details: 100 ng/ml, 0.2 mg/ml rat liver microsomal protein, 60 min, 37°C
Description: SK14-061a (100 ng/ml) was incubated with the incubation mixtures (0.1 M potassium phosphate buffer (pH 7.4), 10 mM MgCl2, 1 mM EDTA, 1 mM NADP+, 10 mM glucose-6-phosphate, 10 units/ml glucose-6-phosphate dehydrogenase, and 0.2 mg/ml of rat liver microsomal protein). After a 5 min pre-incubation of the incubation mixture at 37°C, the metabolic reactions were initiated by the addition of SK14-061a. After 60 min, the SK14-061a was extracted from the incubation samples using the SPE method, and the SK14-061a concentration determined by LC-MS.

HIV-1M184V = system: HIV-1M184V; design: method as in PMID 15200030; details: lamivudine-resistant; cited from earlier work
[10] = rat, plasma, po, 1 mg/kg, read-out: AUC
[11] = rat, plasma, po, 1 mg/kg, read-out: CL/F (converted)
[12] = rat, plasma, po, 1 mg/kg, read-out: Cmax
[13] = rat, plasma, po, 1 mg/kg, read-out: MRT
[14] = rat, plasma, po, 1 mg/kg, read-out: tmax
[15] = rats, p.o., ETV 1 mg/kg alone (SK14-061a (-))
[16] = rats, p.o., 1 mg/kg, 9 hr after oral administration

T1 sequence (P02768 25-609): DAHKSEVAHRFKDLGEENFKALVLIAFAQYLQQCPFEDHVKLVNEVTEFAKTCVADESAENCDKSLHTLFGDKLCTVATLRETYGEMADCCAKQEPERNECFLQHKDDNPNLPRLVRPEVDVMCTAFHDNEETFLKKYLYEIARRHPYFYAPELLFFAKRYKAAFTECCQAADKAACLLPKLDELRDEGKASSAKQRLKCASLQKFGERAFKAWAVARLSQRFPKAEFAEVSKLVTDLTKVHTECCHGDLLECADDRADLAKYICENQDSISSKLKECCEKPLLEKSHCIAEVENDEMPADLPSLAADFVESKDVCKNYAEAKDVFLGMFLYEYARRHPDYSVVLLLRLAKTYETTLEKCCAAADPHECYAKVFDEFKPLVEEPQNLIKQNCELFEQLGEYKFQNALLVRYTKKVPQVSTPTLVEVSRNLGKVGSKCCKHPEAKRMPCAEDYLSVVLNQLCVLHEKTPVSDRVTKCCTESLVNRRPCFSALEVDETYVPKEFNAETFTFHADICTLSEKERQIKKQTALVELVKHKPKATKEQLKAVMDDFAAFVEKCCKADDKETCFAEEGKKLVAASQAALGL

Structure (SMILES): N#C[C@]1(CO)O[C@@H](n2cnc3c(=O)[nH]c(N)nc32)C[C@@H]1O [4′-CN-2′-deoxyguanosine]
activity against HBVL180M/S202G/M204V (HBVL180M/S202G/M204V): highly active
activity against wild-type HBV (wild-type HBV): highly active
activity against HBVA181T/N236T (HBVA181T/N236T): highly active

half-life ([1]; rat, plasma, po, 1 mg/kg): 1.98 ± 0.51 h
AUC [1, 10]: 492 ± 31.5 ng·h/mL
CL/F [1, 11]: 34 mL/min/kg
Cmax [1, 12]: 135 ± 27.4 ng/mL
MRT [1, 13]: 3.24 ± 0.68 h
Tmax [1, 14]: 1.25 ± 0.43 h
AUC [1, 15]: 261 ± 16.2 ng·h/mL
CL/F [1, 15]: 64.2 ± 4.17 mL/min/kg
Cmax [1, 15]: 147 ± 5.82 ng/mL
MRT [1, 15]: 1.35 ± 0.03 h
Tmax [1, 15]: 0.75 h
t1/2 [1, 15]: 0.72 ± 0.05 h
Structure (SMILES): C=C1[C@H](CO)[C@@H](O)C[C@@H]1n1cnc2c(=O)[nH]c(N)nc21 [ETV, entecavir]

Structure (SMILES): N#C[C@]1(CO)O[C@@H](n2cnc3c(O)ncnc32)C[C@@H]1O [SK14-061a, 4′-cyano-2′-deoxyinosine]
change of alanine aminotransferase (ALT) vs control rats [2]: no significant changes
change of aspartate aminotransferase (AST) vs control rats [2]: no significant changes
change of blood urea nitrogen (BUN) vs control rats [2]: no significant changes
change of creatinine vs control rats [2]: no significant changes
half-life ([3]; rat, plasma, iv, rats): 3.01 ± 1.48 h
AUC ([3]; rat, plasma, iv, rats, i.v., read-out: AUC): 475 ± 82.2 ng·h/mL
Cmax ([3]; rat, plasma, iv, rats): 431 ± 36.3 ng/mL
MRT ([3]; rat, plasma, iv, rats): 3.58 ± 1.86 h
clearance ([3]; rat, plasma, iv, rats): 34.7 mL/min/kg
bioavailability ([3]; rat, plasma, oral, rats, p.o. vs i.v., read-out: F (bioavailability)): ~65%
CL/F ([3]; rat, plasma, po): 55.3 mL/min/kg
Cmax ([3]; rat, plasma, po): 48.8 ± 11.8 ng/mL
MRT ([3]; rat, plasma, po): 5.47 ± 1.52 h
half-life ([3]; rat, plasma, po, rats, alone (ETV (-))): ~3.6 h
AUC ([3]; rat, plasma, po, rats, p.o., alone (ETV (-)), read-out: AUC): 308 ± 49.7 ng·h/mL
Tmax ([3]; rat, plasma, po, rats, p.o., alone (ETV (-)), read-out: tmax): 1.3 h
MAT (mean absorption time) ([3]; rats, p.o. vs i.v.): 1.89 h
AUC ([3]; rats, p.o., alone (ETV (-))): 308 ± 49.7 ng·h/mL
Tmax ([3]; rats, p.o., alone (ETV (-))): 1.29 ± 0.34 h
activity against HIV-1MDR (HIV-1MDR): potent activity
binding rate to AGP [4]: about 22.1 ± 0.01%
SK14-061a accumulated in the urine as share of the administered dose ([5]; during 72 hr after oral administration, authors' other study): about 45%
dose excreted ([5]; rat, urine, po, rats, p.o., 1 mg/kg, 9 hr, taken together with bioavailability (approximately 65%), read-out: recovery of SK14-061a in urine taking bioavailability into account): ~30%
amount of unchanged SK14-061a accumulated in the urine [5, 16]: about 46 ± 17 μg
unchanged SK14-061a in urine as share of the administered dose [5, 16]: about 20%
distribution to liver compared with kidney [6]: distributed at higher levels to the liver than the kidney
time of maximum distribution in the kidney ([6]; sampled at 1, 3 and 9 hr): 1 h
time of maximum distribution in the liver ([6]; sampled at 1, 3 and 9 hr): 1 h
half-life ([1]; rat, plasma, po, 1 mg/kg): 4.07 ± 2.2 h
AUC [1, 10]: 972 ± 185 ng·h/mL
CL/F [1, 11]: 17.7 mL/min/kg
Cmax [1, 12]: 165 ± 46.6 ng/mL
MRT [1, 13]: 3.14 ± 2.16 h
Tmax [1, 14]: 1.07 ± 0.4 h
fraction unbound at 500 ng/mL [7]: ~0.363
binding rate to HSA [8]: about 14.7 ± 0.03%
non-metabolized form detected after incubation with rat microsomes [9]: 73.7 ± 10.7%
activity against HIV-1M184V (HIV-1M184V): potent activity; also recorded: highly active
